Laboratory results: the NIST ThermoML archive (doi:10.1021/acs.jced.5b00317)

How the values were obtained:
[1] = mn = molality of the nth substance listed, in mol/kg; conditions: 101 kPa, Liquid; for speed of sound: Sing-around technique in a fixed-path interferometer; for mass density: Vibrating tube method
[2] = cn = amount concentration of the nth substance listed, in mol/dm3; conditions: 101 kPa, Liquid; for speed of sound: Sing-around technique in a fixed-path interferometer; for mass density: Vibrating tube method

Cc1onc(-c2c(F)cccc2Cl)c1C(=O)N[C@@H]1C(=O)N2[C@@H]1SC(C)(C)[C@@H]2C(=O)[O-].[Na+] + O
[1]
Conditions	mass density [kg/m3]	speed of sound [m/s]
298.15 K, m1 = 0.03508	1003.21	1503
298.15 K, m1 = 0.05711	1007	1506.4
298.15 K, m1 = 0.07305	1009.68	1508.6
298.15 K, m1 = 0.09335	1013.04	1511.2
298.15 K, m1 = 0.1142	1016.42	1513.7
298.15 K, m1 = 0.1343	1019.68	1515.8
298.15 K, m1 = 0.148	1021.89	1517.2
298.15 K, m1 = 0.1675	1025.02	1518.9
298.15 K, m1 = 0.1812	1027.16	1520.1
303.15 K, m1 = 0.03508	1001.74	1514.8
303.15 K, m1 = 0.05711	1005.49	1517.8
303.15 K, m1 = 0.07305	1008.14	1519.9
303.15 K, m1 = 0.09335	1011.46	1522.2
303.15 K, m1 = 0.1142	1014.8	1524.4
303.15 K, m1 = 0.1343	1018.04	1526.4
303.15 K, m1 = 0.148	1020.23	1527.6
303.15 K, m1 = 0.1675	1023.33	1529.2
303.15 K, m1 = 0.1812	1025.46	1530.2
308.15 K, m1 = 0.03508	1000.05	1524.9
308.15 K, m1 = 0.05711	1003.77	1527.6
308.15 K, m1 = 0.07305	1006.39	1529.5
308.15 K, m1 = 0.09335	1009.67	1531.6
308.15 K, m1 = 0.1142	1012.98	1533.5
308.15 K, m1 = 0.1343	1016.18	1535.3
308.15 K, m1 = 0.148	1018.35	1536.4
308.15 K, m1 = 0.1675	1021.43	1537.8
308.15 K, m1 = 0.1812	1023.54	1538.7
313.15 K, m1 = 0.03508	998.174	1533.5
313.15 K, m1 = 0.05711	1001.85	1535.9
313.15 K, m1 = 0.07305	1004.44	1537.5
313.15 K, m1 = 0.09335	1007.69	1539.4
313.15 K, m1 = 0.1142	1010.97	1541.1
313.15 K, m1 = 0.1343	1014.14	1542.7
313.15 K, m1 = 0.148	1016.29	1543.7
313.15 K, m1 = 0.1675	1019.34	1544.9
313.15 K, m1 = 0.1812	1021.43	1545.7
318.15 K, m1 = 0.03508	996.11	1540.5
318.15 K, m1 = 0.05711	999.746	1542.6
318.15 K, m1 = 0.07305	1002.31	1544.1
318.15 K, m1 = 0.09335	1005.53	1545.7
318.15 K, m1 = 0.1142	1008.77	1547.3
318.15 K, m1 = 0.1343	1011.91	1548.7
318.15 K, m1 = 0.148	1014.05	1549.5
318.15 K, m1 = 0.1675	1017.07	1550.6
318.15 K, m1 = 0.1812	1019.15	1551.4
323.15 K, m1 = 0.03508	993.877	1546.1
323.15 K, m1 = 0.05711	997.477	1548
323.15 K, m1 = 0.07305	1000.02	1549.2
323.15 K, m1 = 0.09335	1003.2	1550.7
323.15 K, m1 = 0.1142	1006.42	1552.1
323.15 K, m1 = 0.1343	1009.52	1553.3
323.15 K, m1 = 0.148	1011.64	1554
323.15 K, m1 = 0.1675	1014.64	1555
323.15 K, m1 = 0.1812	1016.7	1555.7

[Cl-].[Na+] [sodium chloride] + O
[2]
Conditions	mass density [kg/m3]	speed of sound [m/s]
298.15 K, c1 = 0.0251	998.068	–
298.15 K, c1 = 0.0586	999.427	1501.1
298.15 K, c1 = 0.1021	1001.16	1503.8
298.15 K, c1 = 0.1483	1002.99	1506.4
298.15 K, c1 = 0.2047	1005.19	1509.4
298.15 K, c1 = 0.2543	1007.12	1511.8
303.15 K, c1 = 0.0251	996.654	1511.3
303.15 K, c1 = 0.0586	997.998	1513.4
303.15 K, c1 = 0.1021	999.715	1516
303.15 K, c1 = 0.1483	1001.52	1518.5
303.15 K, c1 = 0.2047	1003.7	1521.4
303.15 K, c1 = 0.2543	1005.61	1523.6
308.15 K, c1 = 0.0251	995.026	1521.9
308.15 K, c1 = 0.0586	996.357	1524
308.15 K, c1 = 0.1021	998.056	1526.5
308.15 K, c1 = 0.1483	999.851	1528.9
308.15 K, c1 = 0.2047	1002.01	1531.6
308.15 K, c1 = 0.2543	1003.9	1533.7
313.15 K, c1 = 0.0251	993.201	1531
313.15 K, c1 = 0.0586	994.523	–
313.15 K, c1 = 0.1021	996.208	1535.5
313.15 K, c1 = 0.1483	997.991	1537.8
313.15 K, c1 = 0.2047	1000.14	1540.3
313.15 K, c1 = 0.2543	1002.01	1542.3
318.15 K, c1 = 0.0251	991.192	1538.5
318.15 K, c1 = 0.0586	992.506	1540.5
318.15 K, c1 = 0.1021	994.181	1542.8
318.15 K, c1 = 0.1483	995.954	1545.1
318.15 K, c1 = 0.2047	998.089	1547.6
318.15 K, c1 = 0.2543	999.952	–
323.15 K, c1 = 0.0251	989.012	1544.6
323.15 K, c1 = 0.0586	990.317	1546.5
323.15 K, c1 = 0.1021	991.983	–
323.15 K, c1 = 0.1483	993.747	1551
323.15 K, c1 = 0.2047	995.872	1553.4
323.15 K, c1 = 0.2543	997.725	1555.2
